This test has as its target T1, protein-protein interaction between SOS1 and KRAS G12C (Homo sapiens, UniProt P01116, C118S/C51S/C80L/G12C).
T1 construct: His6 (N); SOS1: in-house or Viva Biotech Ltd; host or cells: E. coli (KRAS)
The experiment in a line: KRAS::SOS1 AlphaScreen Binding Assay. The conditions noted are these: Table 19, intermediates C-3/C-4; 7.5 nM KRAS G12C, 10 μM GDP, 5 nM GST-SOS1; read-out: IC50 G12C::SOS 1. The text has this:
This assay can be used to examine the potency with which compounds according to the invention binding to KRAS G12C inhibit the protein-protein interaction between SOS1 and KRAS G12C. […] Low IC50 values in this assay setting are indicative of strong inhibition of protein-protein interaction between SOS1 and KRAS:
• GST-tagged SOS1 (564_1049_GST_TEV_ECO) produced in-house • GST-TEV-SOS1 (564-1049) is purchased from Viva Biotech Ltd. • The expression construct of KRAS G12C (amino acids 1-169 of reference sequence P01116-2 (uniprot), with additional mutations: C51S, C80L, and C118S) containing a C-terminal avi-tag was obtained by gene synthesis (GeneArt, Thermo Fisher) in donor vector (pDONR-221) and transferred by recombinant cloning into pDEST17 vector bearing an N-terminal His6-tag. The protein was expressed in E. coli and the purified protein was biotinylated with the E. coli biotin ligase (BirA) before usage. • GDP (Sigma Cat No G7127) • AlphaLISA Glutathione Acceptor Beads (PerkinElmer, Cat No AL109) • AlphaScreen Streptavidin Donor Beads (PerkinElmer Cat No 6760002) • Assay plates: Proxiplate-384 PLUS, white (PerkinElmer, Cat No 6008289)
7.5 nM (final assay concentration) KRAS G12C, 10 μM (final assay concentration) GDP and 5 nM (final assay concentration) GST-SOS1 are mixed in assay buffer prior to use and kept at room temperature.
AlphaLISA Glutathione Acceptor Beads and AlphaScreen Streptavidin Donor Beads are mixed in assay buffer at a concentration of 10 μg/mL (final assay concentration) each prior to use and kept at room temperature.
Compounds are diluted to a final start concentration of 100 μM and are tested in duplicate. Assay-ready plates (ARPs) are generated using an Access Labcyte Workstation with a Labcyte Echo 550 or 555 acoustic dispenser. For compound a start concentration of 100 μM, 150 nL of compound solution is transferred per well in 11 concentrations in duplicate with serial 1:5 dilutions.
The assay is run using a fully automated robotic system in a darkened room below 100 Lux. 10 μL of KRAS::SOS1 GDP mix is added into columns 1-24 to the 150 nL of compound solution (final dilution in the assay 1:100, final DMSO concentration 1%).
After 30 minutes incubation time 5 μL of bead mix is added into columns 1-23. Plates are kept at room temperature in a darkened incubator. After further 60 minutes incubation, the signal is measured using a PerkinElmer Envision HTS Multilabel Reader using the AlphaScreen specifications from PerkinElmer. Each plate contains the following controls: • diluted DMSO+KRAS::SOS1 GDP mix+bead mix • diluted DMSO+KRAS::SOS1 GDP mix
IC50 values are calculated and analyzed using a 4 parametric logistic model.
Tables of example compounds disclosed herein contain IC50 values determined using the above assay.
A general note: Alpha assays give light when donor and acceptor beads are brought close together.

T1 sequence (P01116 1-169 isoform P01116-2 G12C/C51S/C80L/C118S): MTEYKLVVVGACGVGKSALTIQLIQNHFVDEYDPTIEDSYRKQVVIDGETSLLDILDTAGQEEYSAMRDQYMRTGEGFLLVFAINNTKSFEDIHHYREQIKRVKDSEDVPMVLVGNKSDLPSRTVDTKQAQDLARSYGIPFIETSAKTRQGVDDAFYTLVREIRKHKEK

For orientation: IC50 means the concentration needed to halve the response being measured. For `C[C@H](Oc1cc(N2C[C@H](C)N[C@@H](C)C2)nc(-c2onc3c2CCC[C@@]32CCCc3sc(N)c(C#N)c32)n1)[C@@H]1CCCN1C` [C-3a], the IC50 came out at 4.6 nM.

For the molecule `C[C@H](Oc1cc(N2CCNC3(CC3)C2)nc(-c2onc3c2CCC[C@@]32CCCc3sc(N)c(C#N)c32)n1)[C@@H]1CCCN1C` [C-3b], the IC50 came out at 2.5 nM.

Regarding `C[C@H](Oc1cc(N2C[C@H](C)NC3(CC3)C2)nc(-c2onc3c2CCC[C@@]32CCCc3sc(N)c(C#N)c32)n1)[C@@H]1CCCN1C` [C-3d], the IC50 is 4.1 nM.

As for `C[C@H](Oc1nc(-c2onc3c2CCC[C@@]32CCCc3sc(N)c(C#N)c32)cc(N2CCNC3(CC3)C2)n1)[C@@H]1CCCN1C` [C-3e], the IC50 is 45 nM.

Consider `C[C@H](Oc1cc(N2C[C@H](C)N[C@@H](C)C2)nc(-c2noc3c2CCC[C@@]32CCCc3sc(N)c(C#N)c32)n1)[C@@H]1CCCN1C` [C-4a], for which the IC50 turned out to be 2.4 nM.

Consider `C[C@H](Oc1cc(N2CCNC3(CC3)C2)nc(-c2noc3c2CCC[C@@]32CCCc3sc(N)c(C#N)c32)n1)[C@@H]1CCCN1C` [C-4b], for which the IC50 worked out at 1.9 nM.

On to `C[C@H](Oc1nc(-c2noc3c2CCC[C@@]32CCCc3sc(N)c(C#N)c32)cc(N2C[C@H](C)N[C@@H](C)C2)n1)[C@@H]1CCCN1C` [C-4c], for which the IC50 was 37 nM.

Consider `C[C@H](Oc1cc(N2CCNCC2)nc(-c2noc3c2CCC[C@@]32CCCc3sc(N)c(C#N)c32)n1)[C@@H]1CCCN1C` [C-4d], for which the IC50 amounted to 3.2 nM.

Consider `CNC1CCN(c2cc(O[C@@H](C)[C@@H]3CCCN3C)nc(-c3noc4c3CCC[C@@]43CCCc4sc(N)c(C#N)c43)n2)CC1` [C-4e], for which the IC50 was determined as 9 nM.

For the origin of these results see patent US20250296940A1, “ANNULATED 2-AMINO-3-CYANO THIOPHENES AND DERIVATIVES FOR THE TREATMENT OF CANCER” (Boehringer Ingelheim Int'l GmbH Corp., priority 2021, published 2025).
